Patent US20220233512A1, “INHIBITING AN IMMUNE RESPONSE MEDIATED BY ONE OR MORE OF TLR2, RAGE, CCR5, CXCR4 AND CD4” (priority 2020, published 2022)

Columns and labels:
[1] = biological target: FLNA interactions with CXCR4, CD4 and CCR5 (Homo sapiens, UniProt P21333); test: FLNA interactions with CXCR4, CD4 and CCR5 in lymphocytes (western blot); conditions: 1 nM; lymphocytes of Ab42-treated young control subject and of AD patient
[2] = biological target: T1, biotinylated FLNA pentapeptide of positions 2561-2565 (Homo sapiens, UniProt P21333); test: FITC-NLX-based FLNA screening assay; type: binding; conditions: C-Series-1 table, 10 nM FITC-NLX, read-out: Percent Binding Inhibition
T1 construct: the biotinylated FLNA pentapeptide of positions 2561-2565
Experimental: [50 ml of the peptide solution from B+50 ml binding medium, final concentration for DMSO: 0.5%].
The final assay volume is 100 ml.
The final screening concentration for each new compound is initially 10 mM.
Compounds are tested in triplicate or quadruplicate.

mu opiate receptor (MOR) = biological target: T2, mu opiate receptor (MOR) (Rattus norvegicus, UniProt P33535); test: MOR agonist activity using [35S]GTPgS binding assay in striatal membranes; type: biochemical; design: MOR agonist activity (preliminary study): unit of the concentration uncertain; conditions: for MOR agonist activity (preliminary study): average of two runs
T2 construct: from tissue; host or cells: striatum (membrane preparation)
How it was run: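 Rat striatal membranes incubated 5 min at 30 °C in pH 7.5 HEPES buffer with 100 mM NaCl, 1 mM MgCl2 and 0.5 nM [35S]GTPgS, then 5 min with compound. Gαo-bound [35S]GTPgS isolated by immunoprecipitation and counted by liquid scintillation.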

[3] = 0.1 μM compound as agonist, Series C-1 table
[4] = 1 μM compound as agonist, Series C-1 table
[5] = 0.1 μM compound as agonist, Series C-2 table
[6] = 1 μM compound as agonist, Series C-2 table
[7] = 0.1 (unit uncertain) compound as agonist
[8] = 1 (unit uncertain) compound as agonist

T2 sequence (P33535 whole entry): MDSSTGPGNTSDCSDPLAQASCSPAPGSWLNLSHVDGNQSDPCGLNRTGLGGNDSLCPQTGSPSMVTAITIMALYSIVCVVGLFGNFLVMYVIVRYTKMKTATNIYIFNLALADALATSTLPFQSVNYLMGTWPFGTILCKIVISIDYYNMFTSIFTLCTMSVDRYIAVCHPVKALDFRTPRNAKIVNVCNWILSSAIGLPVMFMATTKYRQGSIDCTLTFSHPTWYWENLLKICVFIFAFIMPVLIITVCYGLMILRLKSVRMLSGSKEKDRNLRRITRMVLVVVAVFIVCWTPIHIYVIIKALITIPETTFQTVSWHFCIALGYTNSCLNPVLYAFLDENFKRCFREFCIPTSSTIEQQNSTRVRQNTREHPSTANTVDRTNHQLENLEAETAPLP
Chain of FLNA interactions with CXCR4, CD4 and CCR5 (P21333 2-2647 limits assumed): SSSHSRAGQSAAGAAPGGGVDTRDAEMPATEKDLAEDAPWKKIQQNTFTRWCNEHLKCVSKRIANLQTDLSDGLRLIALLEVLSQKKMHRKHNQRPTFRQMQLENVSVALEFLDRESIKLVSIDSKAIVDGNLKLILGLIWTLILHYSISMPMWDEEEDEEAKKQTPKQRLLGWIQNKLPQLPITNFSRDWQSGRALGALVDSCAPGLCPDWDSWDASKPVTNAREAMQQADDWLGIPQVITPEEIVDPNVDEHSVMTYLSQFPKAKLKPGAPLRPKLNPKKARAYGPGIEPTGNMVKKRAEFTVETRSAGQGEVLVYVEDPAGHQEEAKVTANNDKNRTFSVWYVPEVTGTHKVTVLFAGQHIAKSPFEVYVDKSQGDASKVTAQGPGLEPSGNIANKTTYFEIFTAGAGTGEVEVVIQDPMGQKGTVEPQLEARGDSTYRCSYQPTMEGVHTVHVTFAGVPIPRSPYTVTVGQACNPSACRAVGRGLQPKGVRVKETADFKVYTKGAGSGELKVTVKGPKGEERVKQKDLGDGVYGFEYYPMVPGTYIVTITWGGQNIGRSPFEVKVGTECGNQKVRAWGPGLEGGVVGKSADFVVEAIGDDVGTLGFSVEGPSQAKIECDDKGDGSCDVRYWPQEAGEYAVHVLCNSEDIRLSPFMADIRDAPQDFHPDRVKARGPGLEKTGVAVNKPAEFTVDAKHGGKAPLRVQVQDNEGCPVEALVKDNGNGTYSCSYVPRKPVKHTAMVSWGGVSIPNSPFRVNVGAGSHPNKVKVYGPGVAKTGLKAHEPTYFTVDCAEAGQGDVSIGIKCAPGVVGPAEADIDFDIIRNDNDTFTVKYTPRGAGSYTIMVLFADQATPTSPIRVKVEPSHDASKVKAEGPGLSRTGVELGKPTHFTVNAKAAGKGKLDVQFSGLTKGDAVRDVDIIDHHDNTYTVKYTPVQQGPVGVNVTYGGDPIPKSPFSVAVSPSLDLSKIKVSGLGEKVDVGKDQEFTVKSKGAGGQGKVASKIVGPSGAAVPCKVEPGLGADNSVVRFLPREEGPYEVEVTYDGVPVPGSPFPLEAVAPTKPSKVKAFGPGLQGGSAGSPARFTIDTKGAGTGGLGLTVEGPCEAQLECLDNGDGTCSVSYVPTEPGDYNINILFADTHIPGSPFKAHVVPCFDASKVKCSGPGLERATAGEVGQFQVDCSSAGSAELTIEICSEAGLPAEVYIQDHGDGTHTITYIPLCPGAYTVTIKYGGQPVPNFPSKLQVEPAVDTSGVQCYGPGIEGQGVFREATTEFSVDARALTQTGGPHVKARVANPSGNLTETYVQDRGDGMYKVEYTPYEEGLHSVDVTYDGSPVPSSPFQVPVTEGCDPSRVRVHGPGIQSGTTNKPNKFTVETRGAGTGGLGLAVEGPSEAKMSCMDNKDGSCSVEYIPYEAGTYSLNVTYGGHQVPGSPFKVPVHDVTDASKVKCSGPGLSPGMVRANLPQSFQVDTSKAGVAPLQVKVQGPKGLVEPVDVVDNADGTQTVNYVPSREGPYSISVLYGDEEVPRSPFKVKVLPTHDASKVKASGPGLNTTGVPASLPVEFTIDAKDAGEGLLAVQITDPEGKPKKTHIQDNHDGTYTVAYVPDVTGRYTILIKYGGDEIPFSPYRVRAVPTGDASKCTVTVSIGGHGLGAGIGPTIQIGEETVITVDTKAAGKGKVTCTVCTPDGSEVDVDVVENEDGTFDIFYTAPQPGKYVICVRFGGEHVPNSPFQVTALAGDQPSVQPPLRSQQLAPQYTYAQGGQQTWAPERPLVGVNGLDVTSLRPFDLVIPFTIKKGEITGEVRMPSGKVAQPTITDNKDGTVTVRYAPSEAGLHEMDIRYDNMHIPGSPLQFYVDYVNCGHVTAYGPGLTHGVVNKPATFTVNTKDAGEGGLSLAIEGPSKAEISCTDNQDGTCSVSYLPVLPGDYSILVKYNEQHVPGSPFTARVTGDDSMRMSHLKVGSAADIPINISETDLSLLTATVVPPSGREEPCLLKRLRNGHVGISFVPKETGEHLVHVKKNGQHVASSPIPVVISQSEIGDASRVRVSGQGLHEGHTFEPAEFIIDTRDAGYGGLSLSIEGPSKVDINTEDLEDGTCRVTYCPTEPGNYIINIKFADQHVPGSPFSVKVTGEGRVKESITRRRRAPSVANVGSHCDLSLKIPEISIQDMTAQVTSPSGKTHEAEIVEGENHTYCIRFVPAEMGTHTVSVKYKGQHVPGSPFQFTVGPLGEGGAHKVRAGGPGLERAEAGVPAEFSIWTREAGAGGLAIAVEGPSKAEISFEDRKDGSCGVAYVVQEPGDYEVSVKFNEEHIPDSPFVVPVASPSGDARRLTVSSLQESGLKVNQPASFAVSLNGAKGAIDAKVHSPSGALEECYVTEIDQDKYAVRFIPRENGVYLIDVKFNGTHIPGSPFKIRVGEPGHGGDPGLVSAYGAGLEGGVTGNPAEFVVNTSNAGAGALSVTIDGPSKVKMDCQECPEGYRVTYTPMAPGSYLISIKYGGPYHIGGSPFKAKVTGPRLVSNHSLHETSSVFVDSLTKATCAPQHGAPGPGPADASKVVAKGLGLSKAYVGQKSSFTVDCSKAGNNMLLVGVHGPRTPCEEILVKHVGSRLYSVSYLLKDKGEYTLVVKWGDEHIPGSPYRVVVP

SMILES	MOR agonist activity ([35S]GTPgS binding to Gao) (mu opiate receptor (MOR); [3])	MOR agonist activity ([35S]GTPgS binding to Gao) (mu opiate receptor (MOR); 1 μM + BFNA, Series C-1 table)	MOR agonist activity ([35S]GTPgS binding to Gao) (mu opiate receptor (MOR); [4])	MOR agonist activity ([35S]GTPgS binding to Gao) (mu opiate receptor (MOR); [5])	MOR agonist activity ([35S]GTPgS binding to Gao) (mu opiate receptor (MOR); 1 μM + BFNA, Series C-2 table)	MOR agonist activity ([35S]GTPgS binding to Gao) (mu opiate receptor (MOR); [6])	also measured
C=CCN1CC[C@]23c4c5ccc(O)c4O[C@H]2C(=O)CC[C@@]3(O)[C@H]1C5 [Naloxone, naloxone, reference compound]							FLNA linkages with CXCR4, CD4 and CCR5 (in words) [1]: reduced these linkages
Nc1ccc(C(=O)N2CCC3(CC2)OCCN3S(=O)(=O)c2ccc(N)cc2)cc1 [Compound C0023]	153.2%	23.2%	233.7%				inhibition at 0.01 µM ([2]; 0.01 μM compound): 35.9%; inhibition at 0.1 µM ([2]; 0.1 μM compound): 41.7%; inhibition at 1 µM ([2]; 1 μM compound): 47.2%
CC(=O)c1ccc(S(=O)(=O)N2CCOC23CCN(C)CC3)cc1 [Compound C0093M]				140.0%	44.0%	211.8%	
CN1CCC2(CC1)NC(=O)CN2Cc1ccccc1 [Compound C0104M]				188.2%	143.8%	238.9%	
C[C@@H](NC(=O)[C@@H](N)Cc1ccc(O)cc1)C(=O)NCC(=O)N(C)[C@@H](Cc1ccccc1)C(=O)NCCO [DAMGO, [D-Ala2, N-MePhe4, Gly-ol]-enkephalin, reference compound]	168.5%	53.2%	266.1%	168.5%	53.2%	266.1%	MOR agonist activity (preliminary study) (mu opiate receptor (MOR); 1 mM + bNFA): 56.8%; MOR agonist activity (preliminary study) (mu opiate receptor (MOR); [7]): 144.7%; MOR agonist activity (preliminary study) (mu opiate receptor (MOR); [8]): 233.4%
O=C1CN(C2CCc3ccccc3C2)C2(CCN(S(=O)(=O)c3ccccc3)CC2)N1 (stereo not shown) [C0136M/ (P5)]				176.8%	74.5%	237.3%	
CC(=O)c1ccc(S(=O)(=O)N2CCOC23CCNCC3)cc1 [Compound C0046]				286.2%	156.8%	492.9%	
CC(=O)c1ccc(S(=O)(=O)N2CCC3(CC2)OCCN3S(=O)(=O)c2ccc(C(C)=O)cc2)cc1 [Compound C0011]	217.0%	19.0%	305.0%	217.0%	19.0%	305.0%	
O=S(=O)(c1csc2ccccc12)N1CCC2(CC1)OCCN2S(=O)(=O)c1csc2ccccc12 [Compound C0150M]	167.1%	93.4%	423.1%				
C=CCN1CCC2(CC1)OCCN2S(=O)(=O)c1ccc(C)cc1 [Compound 10]							MOR agonist activity (preliminary study) (mu opiate receptor (MOR); 1 mM + bNFA): 60.4%; MOR agonist activity (preliminary study) (mu opiate receptor (MOR); [7]): 163.1%; MOR agonist activity (preliminary study) (mu opiate receptor (MOR); [8]): 191.8%
O=C(c1ccc([N+](=O)[O-])cc1)N1CCC2(CC1)OCCN2S(=O)(=O)c1ccc([N+](=O)[O-])cc1 [Compound C0022]	194.3%	13.4%	328.7%				
CCCCc1ccc(S(=O)(=O)N2CCC3(CC2)OCCN3S(=O)(=O)c2ccc(CCCC)cc2)cc1 [Compound C0030]	150.3%	95.0%	226.8%				
